Tests used:
[1] = tested on: HTCFs; experiment: Collagen Contraction Assay V (AHGF induced, APHS and gentamicin vs mitomycin C); format: cell-based, human; conditions: APHS 12 and 24 μg/ml
Protocol: (§1) HTCFs were seeded at a density of 2.5×10^5 cells/mL within an extracellular matrix (ECM) mixture containing 400 ul of rat tail-derived type I collagen (1.8 mg/ml), 80 ul of neutralizing solution (equal parts Waymouth's media (Gibco, CAT. NO: 11220035) and 0.275M NaOH) and 20 ul of HTCF conditioned media (concentrated to 25× to obtain a 1× final concentration within the 500 ul matrix solution). The cell-collagen solution was pipetted gently to ensure homogenous distribution of HTCFs while avoiding the production of air bubbles, then 500 ul were pipetted into each well of a 24-well tray. Collagen constructs were allowed to polymerize at 37 C for 45 minutes before adding low serum culture media containing DMEM, 2% Fetal Bovine Serum (FBS), 1% penicillin/streptomycin (P/S).
(§2) Tension was allowed to build up within the tethered matrix at 37 C and 5% CO2 for 72 hours before a sterile spatula was used to detach each collagen construct from the edges of the culture well. Plates were then immediately scanned on a flat bed laser scanner to record baseline area, and then measured periodically for a duration of 4 days. The surface area of each collagen construct was measured using ImageJ (NIH) and standardized against the baseline surface area measurement to express changes in area as a percentage of original surface area. […]

[2] = tested on: HTCFs; experiment: Collagen Contraction Assay IV (AHGF induced, ASA and gentamicin vs mitomycin C); format: cell-based, human; conditions: ASA 1500 μg/ml and/or gentamicin 750 μg/ml; comparator mitomycin C 0.2 mg/ml for 4 minutes
Protocol: Tension was allowed to build up within the tethered matrix at 37 C and 5% CO2 for 72 hours before a sterile spatula was used to detach each collagen construct from the edges of the culture well. Plates were then immediately scanned on a flat bed laser scanner and then periodically for a total of 4 days. The surface area of each collagen construct was measured using ImageJ (NIH) and standardized against the baseline surface area measurement to express changes in area as a percentage of original surface area.
In this modification of the assay, AHGFs are added to all culture media the collagen constructs are exposed to—from casting of the collagen constructs to the conclusion of contraction. The experimental treatment solutions—all also containing AHGFs—were added 30 minutes prior to detaching the collagen constructs from the culture wells and remained until experimental conclusion. […] DMEM w/2% FBS was added for the remainder of the experiment).

[3] = tested on: human Tenon's capsule fibroblasts (HTCFs); experiment: Collagen Contraction Assay I (delayed release fibroblast populated collagen lattice); format: cell-based
Protocol: The delayed release fibroblast populated collagen lattice model was used to assess inhibition of gel contraction [58] by ASA and gentamicin. […] Cell free collagen lattices were prepared identically, however to isolate the effects of HTCFs alone on collagen, constructs without HTCFs were cast as a negative control. The cell-collagen solution was pipetted gently to ensure homogenous distribution of HTCFs while avoiding the production of air bubbles, then 500 ul were pipetted into each well of a 24-well tray. Collagen constructs were allowed to polymerize at 37 C for 45 minutes before adding low serum culture media containing DMEM, 2% Fetal Bovine Serum (FBS), 1% penicillin/streptomycin (P/S).
Tension was allowed to build up within the tethered matrix at 37 C and 5% CO2 for 72 hours before a sterile spatula was used to detach each collagen construct from the edges of the culture well. Plates were then immediately scanned on a flat bed laser scanner and then once per hour for the first 12 hours, then daily for a total of 4 days. The surface area of each collagen construct was measured using ImageJ (NIH) and standardized against the baseline surface area measurement to express changes in area as a percentage of original surface area.
Vehicle control treatment solution comprised of DMEM with 2% FBS and 1% penicillin/streptomycin. The gentamicin treatment solution contained DMEM with 2% FBS, 1% penicillin/streptomycin and 1000 μg/ml gentamicin (w/vol) (Sigma-Aldrich, CAT. NO: G1397). The ASA treatment solution contained DMEM with 2% FBS, 1% penicillin/streptomycin and 2000 μg/ml ASA (w/vol) (Sigma-Aldrich, CAT. NO: A5376). The gentamicin-ASA combination treatment solution (Gent+ASA) contained DMEM with 2% FBS, 1% penicillin/streptomycin, 1000 μg/ml gentamicin (w/vol.) and 2000 μg/ml ASA (w/vo).
Culture media was removed from collagen constructs twice daily and replaced with one of the four treatment solutions for a duration of 15 minutes. […]

[4] = tested on: HTCFs; experiment: Collagen Contraction Assay III (TGFB1-induced); format: cell-based, human; conditions: ASA 1000 or 1500 μg/ml, with or without gentamicin; TGFB1 2 ng/ml added at 48 hrs
Protocol: as §1, with “A modified delayed release fibroblast populated collagen lattice model was used to assess inhibition of TGFB1-induced collagen contraction by ASA and gentamicin. HTCFs were” for “HTCFs were”, “24-well tray. […]” for “24-well tray. Collagen constructs were allowed to polymerize at 37 C for 45 minutes before adding low serum culture media containing DMEM, 2% Fetal Bovine Serum (FBS), 1% penicillin/streptomycin (P/S).”
as §2, with “for a” for “to record”, “area reading” for “area,”, “again regularly” for “periodically”, “total” for “duration”, “days. […]” for “days.”

[5] = tested on: HTCFs; experiment: Collagen Contraction Assay II (dose dependence); format: cell-based, human
Protocol: Tension was allowed to build up within the tethered matrix at 37 C and 5% CO2 for 72 hours before a sterile spatula was used to detach each collagen construct from the edges of the culture well. Plates were then immediately scanned on a flat bed laser scanner once per 24 hours for a total of 4 days. The surface area of each collagen construct was measured using ImageJ (NIH) and standardized against the baseline surface area measurement to express changes in area as a percentage of original surface area.
The gentamicin concentrations assessed were delivered in a solution contained DMEM with 2% FBS, 1% penicillin/streptomycin and either 100, 250, 500, 750 or 100 μg/ml gentamicin (Sigma-Aldrich, CAT. NO: G1397). The ASA concentrations assessed were delivered in a solution of DMEM with 2% FBS, 1% penicillin/streptomycin and either 500, 1000 or 1500 μg/ml ASA (Sigma-Aldrich, CAT. NO: A5376). […]

## CCCCC#CCSc1ccccc1OC(C)=O [APHS, o-(acetoxyphenyl)hept-2-ynyl sulfide]
[1]
  AHGF-induced HTCF-mediated collagen contraction: significantly inhibited AHGF-induced HTCF-mediated collagen contraction

## CC(=O)Oc1ccccc1C(=O)O [ASA, acetylsalicylic acid]
[2]
  AHGF induced, HTCF-mediated collagen contraction: significantly negate the effects of the AHGFs on HTCF-mediated collagen contraction, albeit significantly less than the current ophthalmic clinical gold standard
[3]; ASA 2000 μg/ml alone
  contraction evident by the end of the four-day period: approximately 20%
[3]; gentamicin 1000 μg/ml and/or ASA 2000 μg/ml, 15 minutes twice daily, four day assay, vs vehicle control
  HTCF mediated collagen contraction: significantly inhibited contraction compared to vehicle control at all time points after the first hour of the experiment
[4]
  HTCF-mediated collagen contraction before and after TGFb1 stimulus: significantly impair HTCF-mediated contraction, at all concentrations assessed, both before and after stimulus with TGFb1
[5]; ASA 500 μg/ml, alone or with gentamicin 100-1000 μg/ml (FIG. 8C)
  HTCF-mediated collagen contraction: no significant treatment effects found
[5]; ASA alone, 500, 1000, 1500 μg/ml, four days (FIG. 8B)
  HTCF-mediated collagen contraction: dose dependent inhibition of HTCF-mediated collagen contraction

— patent US20210196731A1, “COMPOSITIONS AND METHODS FOR TREATING OCULAR INFLAMMATION AND OCULAR SCARRING” (priority 2018, published 2021)
